{"source": "paper PMC7179202", "about": "(Molecules, 2020)", "key": {"[1]": {"test": "H2O2 activation assay (HPLC)", "conditions": "for Release of free crizotinib / Product of activation with H2O2: ten equivalents H2O2, phosphate buffer 50 mM pH 7.4, 37 °C; for Product of activation with H2O2: 1 h, HPLC-MS", "procedure": "Therefore, the activation process was verified by incubation with ten equivalents of H2O2 in phosphate buffer (50 mM, pH 7.4) at 37 °C. […] In a complex biological environment, this quinone methide usually reacts with other nucleophiles; consequently, this side reaction can be neglected.\nAdditionally, a H2O2 solution (1 mM) in PB7.4 was prepared. The activation was started by addition of 5 µL of drug solution and 25 µL of H2O2 to 70 µL of PB7.4 and incubated at 37 °C for 1 h. At time point 0 and every 8 min, the sample were measured via HPLC. All measurements were performed on a ThermoFisher Ultimate 3000RS system using a Water’s Acquity BEH C18 column (3 × 50 mm, 1.7 µm) and a 5%–95% gradient of acetonitrile (+0.1% TFA) in water (+0.1% TFA). […] The results are visualized in Figure S6 for prodrug A and in Figure S7 for prodrug B."}, "[2]": {"system": "H1993 (c-MET-dependent non-small cell lung cancer)", "test": "MTT cytotoxicity assay, H1993", "conditions": "for IC50: Homo sapiens, NCI-H1993, read-out: IC50 H1993; for Ratio of IC50 ±H2O2, H1993: IC50 without / with H2O2 pre-incubation", "experimental": "(§1) In addition, to assess the amount of prodrug activation in these models, the cytotoxicity of the activated drugs after (cell-free) pre-incubation with H2O2 was tested for comparison.\n(§2) All samples were dissolved in DMSO and diluted to the indicated concentrations (final concentrations of DMSO were below 1%). […] Viability was measured using 3-(4,5-dimethylthiazol-2-yl)-2,5-diphenyltetrazolium bromide (MTT) based vitality assay (EZ4U; Biomedica, Vienna, Austria) following the manufacturer’s recommendations."}, "[3]": {"system": "non-malignant human lung fibroblasts (HLF)", "test": "MTT cytotoxicity assay, HLF", "conditions": "Fibroblast, read-out: IC50 HLF", "experimental": "as §1, §2"}, "[4]": {"system": "RUMH (c-MET-overexpressing renal cell carcinoma)", "test": "MTT cytotoxicity assay, RUMH", "conditions": "for IC50: Homo sapiens, read-out: IC50 RUMH; for Ratio of IC50 ±H2O2, RUMH: IC50 without / with H2O2 pre-incubation", "experimental": "as §1, §2"}, "[5]": {"system": "H2228 (ALK-dependent non-small cell lung cancer)", "test": "MTT cytotoxicity assay, H2228", "conditions": "for IC50: Homo sapiens, NCI-H2228, read-out: IC50 H2228; for Ratio of IC50 ±H2O2, H2228: IC50 without / with H2O2 pre-incubation", "experimental": "as §1, §2"}, "[6]": {"target": "c-MET (Homo sapiens, UniProt P08581)", "sequence (P08581 25-1390)": "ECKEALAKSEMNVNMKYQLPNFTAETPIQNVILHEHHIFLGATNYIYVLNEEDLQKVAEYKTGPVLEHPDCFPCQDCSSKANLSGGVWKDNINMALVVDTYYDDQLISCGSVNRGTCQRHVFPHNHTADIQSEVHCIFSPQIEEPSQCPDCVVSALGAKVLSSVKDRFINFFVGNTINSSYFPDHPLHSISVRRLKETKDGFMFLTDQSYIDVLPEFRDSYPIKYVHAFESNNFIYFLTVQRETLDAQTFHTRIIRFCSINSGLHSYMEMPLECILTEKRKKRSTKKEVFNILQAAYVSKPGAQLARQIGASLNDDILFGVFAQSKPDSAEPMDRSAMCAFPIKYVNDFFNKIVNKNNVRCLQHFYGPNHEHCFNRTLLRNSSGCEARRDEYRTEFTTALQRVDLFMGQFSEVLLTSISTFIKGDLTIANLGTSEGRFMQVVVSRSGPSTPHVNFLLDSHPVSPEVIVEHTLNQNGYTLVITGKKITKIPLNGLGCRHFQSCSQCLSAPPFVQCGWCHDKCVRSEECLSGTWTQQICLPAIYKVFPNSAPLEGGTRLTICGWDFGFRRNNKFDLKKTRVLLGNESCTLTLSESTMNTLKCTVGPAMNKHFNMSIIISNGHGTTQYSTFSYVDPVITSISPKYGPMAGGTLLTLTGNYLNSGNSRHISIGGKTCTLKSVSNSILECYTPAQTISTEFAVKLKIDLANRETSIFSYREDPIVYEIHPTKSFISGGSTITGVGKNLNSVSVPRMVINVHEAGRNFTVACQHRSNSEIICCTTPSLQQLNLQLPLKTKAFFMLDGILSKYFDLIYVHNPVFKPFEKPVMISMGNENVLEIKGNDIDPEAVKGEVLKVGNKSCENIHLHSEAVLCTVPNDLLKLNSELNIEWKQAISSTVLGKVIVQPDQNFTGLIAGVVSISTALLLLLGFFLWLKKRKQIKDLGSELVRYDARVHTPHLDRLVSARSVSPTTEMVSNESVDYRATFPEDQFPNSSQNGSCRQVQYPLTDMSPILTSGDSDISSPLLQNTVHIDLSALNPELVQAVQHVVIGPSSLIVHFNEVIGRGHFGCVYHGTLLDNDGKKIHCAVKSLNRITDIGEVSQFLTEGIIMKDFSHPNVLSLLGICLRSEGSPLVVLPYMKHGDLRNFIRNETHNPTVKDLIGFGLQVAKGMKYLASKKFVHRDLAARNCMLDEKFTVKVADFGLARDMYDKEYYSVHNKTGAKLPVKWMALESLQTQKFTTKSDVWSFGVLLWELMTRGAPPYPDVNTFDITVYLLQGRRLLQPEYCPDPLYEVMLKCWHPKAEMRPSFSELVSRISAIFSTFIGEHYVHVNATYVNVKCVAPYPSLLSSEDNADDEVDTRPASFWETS", "test": "Cell-free kinase inhibition assay (SelectScreen, Z'-LYTE), c-MET", "conditions": "for Prodrug factor c-MET = IC50 (prodrug)/IC50 (crizotinib): cell-free kinase assay", "text": "(§3) The test compounds were screened in a final concentration of 1% DMSO using the Z′-LYTE® Assay."}, "[7]": {"target": "ALK (Homo sapiens, UniProt Q9UM73)", "sequence (Q9UM73 19-1620)": "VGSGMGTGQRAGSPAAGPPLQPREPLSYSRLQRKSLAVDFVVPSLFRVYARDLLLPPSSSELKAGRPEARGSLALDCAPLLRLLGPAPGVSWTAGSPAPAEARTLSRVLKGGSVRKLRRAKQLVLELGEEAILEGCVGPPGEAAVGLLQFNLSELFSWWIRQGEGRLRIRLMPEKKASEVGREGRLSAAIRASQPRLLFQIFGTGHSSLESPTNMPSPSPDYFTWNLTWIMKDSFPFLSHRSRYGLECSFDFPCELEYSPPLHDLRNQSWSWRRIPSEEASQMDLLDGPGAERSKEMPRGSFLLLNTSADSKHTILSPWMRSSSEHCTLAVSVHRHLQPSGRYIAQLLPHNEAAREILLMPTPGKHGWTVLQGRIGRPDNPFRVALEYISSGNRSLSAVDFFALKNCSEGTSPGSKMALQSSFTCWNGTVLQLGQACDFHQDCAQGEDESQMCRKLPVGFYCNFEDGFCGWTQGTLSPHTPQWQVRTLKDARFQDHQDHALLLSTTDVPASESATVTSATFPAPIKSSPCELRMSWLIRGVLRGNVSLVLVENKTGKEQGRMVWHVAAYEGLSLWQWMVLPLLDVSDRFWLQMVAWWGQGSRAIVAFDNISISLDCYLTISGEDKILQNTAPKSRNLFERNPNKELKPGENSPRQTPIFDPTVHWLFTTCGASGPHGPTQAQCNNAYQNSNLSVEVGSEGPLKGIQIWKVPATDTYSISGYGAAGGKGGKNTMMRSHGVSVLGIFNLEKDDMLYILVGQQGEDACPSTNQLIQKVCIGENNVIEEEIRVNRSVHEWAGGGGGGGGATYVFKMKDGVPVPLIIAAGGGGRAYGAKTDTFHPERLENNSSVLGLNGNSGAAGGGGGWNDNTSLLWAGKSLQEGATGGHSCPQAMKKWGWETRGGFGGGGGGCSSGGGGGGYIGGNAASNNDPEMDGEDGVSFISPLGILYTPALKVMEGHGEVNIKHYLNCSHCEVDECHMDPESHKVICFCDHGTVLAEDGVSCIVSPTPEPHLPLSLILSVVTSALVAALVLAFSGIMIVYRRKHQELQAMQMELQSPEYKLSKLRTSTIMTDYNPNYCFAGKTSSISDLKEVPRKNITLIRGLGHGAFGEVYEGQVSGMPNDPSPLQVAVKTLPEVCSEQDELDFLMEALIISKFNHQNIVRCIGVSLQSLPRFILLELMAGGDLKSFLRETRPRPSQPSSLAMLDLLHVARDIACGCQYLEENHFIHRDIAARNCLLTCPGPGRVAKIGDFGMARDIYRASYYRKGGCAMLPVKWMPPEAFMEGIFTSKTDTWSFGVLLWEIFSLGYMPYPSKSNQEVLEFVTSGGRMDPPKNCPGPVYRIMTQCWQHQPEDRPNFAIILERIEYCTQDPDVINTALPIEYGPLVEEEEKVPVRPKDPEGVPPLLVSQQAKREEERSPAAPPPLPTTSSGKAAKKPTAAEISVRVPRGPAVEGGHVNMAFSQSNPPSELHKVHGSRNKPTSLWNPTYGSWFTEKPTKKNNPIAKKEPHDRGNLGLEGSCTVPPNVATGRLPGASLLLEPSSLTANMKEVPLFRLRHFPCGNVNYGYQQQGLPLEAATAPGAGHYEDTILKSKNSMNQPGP", "test": "Cell-free kinase inhibition assay (SelectScreen, Z'-LYTE), ALK", "conditions": "for Prodrug factor ALK = IC50 (prodrug)/IC50 (crizotinib): cell-free kinase assay", "text": "as §3"}, "[8]": {"test": "Stability in R10 medium and fetal calf serum (HPLC-MS)", "conditions": "R10 medium and pure FCS, 37 °C, after 72 h", "experimental": "After precipitation of the macromolecules with acetonitrile, the supernatant was investigated via HPLC-MS measurements (Figure 4).\nThe 10 mM stock solutions of the drugs were prepared in DMSO and diluted 1:10 with PB7.4. […] At different time points, macromolecules were precipitated by addition of 40 µL of acetonitrile, vortexed and centrifuged for 10 min at 6000 rpm. The supernatant was extracted and investigated via HPLC-MS measurements."}, "[9]": {"design": "method as in PMID 28256516", "conditions": "approved orally applied drug, SwissADME prediction; cited from earlier work"}}, "data": [{"smiles": "C[C@@H](Oc1cc(-c2cnn(C3CCNCC3)c2)cnc1NC(=O)OCc1ccc(B(O)O)cc1)c1c(Cl)ccc(F)c1Cl", "note": "[Prodrug A, (R)-(4-((((3-(1-(2,6-Dichloro-3-fluorophenyl)ethoxy)-5-(1-(piperidin-4-yl)-1H-pyrazol-4-yl)pyridin-2-yl)carbamoyl)oxy)methyl)phenyl)boronic acid]", "values": [{"measurement": "Time to activation on incubation with H2O2", "setting": "[1]; incubation with H2O2", "result": "≤ 1", "unit": "h"}, {"measurement": "Release of free crizotinib", "setting": "[1]; after 10 min", "result": "~ 50%"}, {"measurement": "Release of free crizotinib", "setting": "[1]; after 1 h", "result": "~ 75%"}, {"measurement": "IC50", "setting": "[2]", "result": "9.73 ± 2.63", "unit": "µM"}, {"measurement": "Ratio of IC50 ±H2O2, H1993", "setting": "[2]", "result": 1.22}, {"measurement": "IC50", "setting": "[3]", "result": "16.8 ± 1.38", "unit": "µM"}, {"measurement": "IC50", "setting": "[4]", "result": "14 ± 3.92", "unit": "µM"}, {"measurement": "Ratio of IC50 ±H2O2, RUMH", "setting": "[4]", "result": 1.57}, {"measurement": "IC50", "setting": "[5]", "result": "23.1 ± 0.47", "unit": "µM"}, {"measurement": "Ratio of IC50 ±H2O2, H2228", "setting": "[5]", "result": 1.62}, {"measurement": "IC50", "setting": "[6]", "result": 0.055, "unit": "µM"}, {"measurement": "Prodrug factor c-MET = IC50 (prodrug)/IC50 (crizotinib)", "setting": "[6]", "result": 11}, {"measurement": "IC50", "setting": "[7]", "result": 0.472, "unit": "µM"}, {"measurement": "Prodrug factor ALK = IC50 (prodrug)/IC50 (crizotinib)", "setting": "[7]", "result": 22}]}, {"smiles": "C[C@@H](Oc1cc(-c2cnn(C3CCNCC3)c2)cnc1NCc1ccc(O)cc1)c1c(Cl)ccc(F)c1Cl", "note": "[Compound C, (R)-4-(((3-(1-(2,6-Dichloro-3-fluorophenyl)ethoxy)-5-(1-(piperidin-4-yl)-1H-pyrazol-4-yl)pyridin-2-yl)amino)methyl)phenol]", "values": [{"measurement": "IC50", "setting": "[2]", "result": "9.96 ± 2.69", "unit": "µM"}, {"measurement": "IC50", "setting": "[3]", "result": "4.03 ± 0.04", "unit": "µM"}, {"measurement": "IC50", "setting": "[4]", "result": "5.94 ± 1.09", "unit": "µM"}, {"measurement": "IC50", "setting": "[5]", "result": "7.23 ± 0.28", "unit": "µM"}]}, {"smiles": "C[C@@H](Oc1cc(-c2cnn(C3CCNCC3)c2)cnc1NCc1ccc(B(O)O)cc1)c1c(Cl)ccc(F)c1Cl", "note": "[Prodrug B, (R)-(4-(((3-(1-(2,6-Dichloro-3-fluorophenyl)ethoxy)-5-(1-(piperidin-4-yl)-1H-pyrazol-4-yl)pyridin-2-yl)amino)methyl)phenyl)boronic acid]", "values": [{"measurement": "Product of activation with H2O2", "setting": "[1]", "result": "formation of a hydrolyzed but stable phenol derivative, compound C"}, {"measurement": "Product of activation with H2O2", "setting": "[1]; listed as prodrug B", "result": "formation of compound C rather than the release of crizotinib"}, {"measurement": "IC50", "setting": "[2]", "result": "10.2 ± 1.68", "unit": "µM"}, {"measurement": "Ratio of IC50 ±H2O2, H1993", "setting": "[2]", "result": 0.87}, {"measurement": "IC50", "setting": "[3]", "result": "8.99 ± 0.36", "unit": "µM"}, {"measurement": "IC50", "setting": "[4]", "result": "5.05 ± 0.44", "unit": "µM"}, {"measurement": "Ratio of IC50 ±H2O2, RUMH", "setting": "[4]", "result": 0.91}, {"measurement": "Prodrug still intact", "setting": "[8]", "result": "30–40%"}, {"measurement": "IC50", "setting": "[5]", "result": "8.3 ± 0.42", "unit": "µM"}, {"measurement": "Ratio of IC50 ±H2O2, H2228", "setting": "[5]", "result": 0.92}, {"measurement": "IC50", "setting": "[6]", "result": 0.684, "unit": "µM"}, {"measurement": "Prodrug factor c-MET = IC50 (prodrug)/IC50 (crizotinib)", "setting": "[6]", "result": 137}, {"measurement": "IC50", "setting": "[7]", "result": 0.333, "unit": "µM"}, {"measurement": "Prodrug factor ALK = IC50 (prodrug)/IC50 (crizotinib)", "setting": "[7]", "result": 16}]}, {"smiles": "CS(=O)(=O)CCNCc1ccc(-c2ccc3ncnc(Nc4ccc(OCc5cccc(F)c5)c(Cl)c4)c3c2)o1", "note": "[lapatinib]", "values": [{"measurement": "GI absorption (predicted)", "setting": "[9]", "result": "low"}]}, {"smiles": "C[C@@H](Oc1cc(-c2cnn(C3CCNCC3)c2)cnc1N)c1c(Cl)ccc(F)c1Cl", "note": "[Crizotinib, reference compound]", "values": [{"measurement": "IC50", "setting": "[2]", "result": "3.18 ± 0.26", "unit": "µM"}, {"measurement": "IC50", "setting": "[3]", "result": "6.32 ± 0.39", "unit": "µM"}, {"measurement": "IC50", "setting": "[4]", "result": "6.08 ± 1.51", "unit": "µM"}]}]}
